Reference: patent US20140127827A1, “METHOD FOR DETECTION OF ANTIGEN USING FLUORESCENCE RESONANCE ENERGY TRANSFER IMMUNOASSAY” (priority 2012, published 2014)

What was measured:
Assay type in all cases: binding
[1] = system: anti-OTA antibody; assay: FRET immunoassay using an intact antibody (OTA/anti-OTA conjugate); conditions: 0, 10, 100 ng/mL; 25 mM MEST pH 6.0; excitation 280 nm
Protocol: (§1) Using 25 mM MEST buffer solution (containing 0.3% Tween 20 in MES buffer solution, pH 6.0), mycotoxins of various concentrations (0 ng/mL, 10 ng/mL and 100 ng/mL) were reacted with antibodies having a constant concentration at room temperature for 20 minutes to obtain mycotoxin/antibody conjugates (AFB1/anti-AFB1 conjugate, OTA/anti-OTA conjugate, and ZEN/anti-ZEN conjugate). The obtained mycotoxin/antibody conjugates were excited at 280 nm to obtain fluorescence spectra (FIG. 4). Referring to FIG. 4, it can be seen that, as the concentration of mycotoxins (AFB1, OTA and ZEN) increases, the fluorescence intensity at a wavelength of 350 nm decreases.

[2] = system: anti-AFB1 Fab; assay: FRET immunoassay using Fab fragment (anti-AFB1 Fab), incl. specificity to OTA
Protocol: Under the condition of 25 mM MEST buffer solution (pH 6.0), AFB1 of various concentrations (0, 0.1, 0.2, 0.5, 1, 2, 10, 20, 50 and 100 ng/mL) was reacted with anti-AFB1 Fab fragments having a constant concentration at room temperature for 20 minutes to obtain AFB1/anti-AFB1 Fab conjugates. The obtained AFB1/anti-AFB1 Fab conjugates were excited at 280 nm to obtain fluorescence spectra (FIG. 7). Referring to FIG. 7, it can be seen that, as the concentration of AFB1 increases, the fluorescence intensity at a wavelength of 350 nm decreases. Particularly, it can also be seen that sensitivity of FRET immunoassay using Fab fragments was much better than that of FRET immunoassay using an intact antibody of Example 1 (FIG. 8). Further, as a result of analysis by lowering the concentration of AFB1, it can be seen that approximately up to 0.09 ng/mL of AFB1 could be detected through FRET immunoassay using Fab fragments. This corresponds to a near 10-fold improvement in terms of sensitivity as compared to FRET immunoassay where an intact antibody of Example 1 was used. […]

[3] = system: anti-BaP; assay: FRET immunoassay for benzopyrene using antibodies (BaP/anti-BaP conjugate), incl. specificity to pyrene and DBA; conditions: same concentration as BaP (5 and 20 ng/mL), 10 mM NaHCO3 pH 9.0
Protocol: Under the condition of 10 mM NaHCO3 buffer solution (pH 9.0), BaPs having various concentrations (0, 0.1, 0.2, 0.5, 1, 2, 5, 10, 20 and 50 ng/mL) were reacted with antibodies having constant concentration at room temperature for 20 minutes to obtain BaP/anti-BaP conjugates. The obtained BaP/anti-BaP conjugates were excited at 280 nm to obtain a fluorescence spectrum (FIG. 18). Referring to FIGS. 18 and 19, it can be seen that, as the concentration of BaP increases, fluorescence intensity at a wavelength of 350 nm decreases, while fluorescence intensity at 435 nm increases at the same time.
Under the condition of 10 mM NaHCO3 buffer solution (pH 9.0), specificity of mouse IgG antibody (anti-Mouse IgG) to 5 ng/mL and 20 ng/mL BaP was investigated using FRET immunoassay. […] Further, specificity of anti-BaP to pyrene and dibenz[a,h]anthracene (DBA) having the same concentration as BaP was investigated.

[4] = system: anti-ZEN antibody; assay: FRET immunoassay using an intact antibody (ZEN/anti-ZEN conjugate); conditions: 0, 10, 100 ng/mL; 25 mM MEST pH 6.0; excitation 280 nm
Protocol: as §1

[5] = system: anti-NPT; assay: FRET immunoassay for neopterin using antibodies (NPT/anti-NPT conjugate), incl. specificity to BPT; conditions: 10 mM NaHCO3 pH 9.0
Protocol: Under the condition of 10 mM NaHCO3 buffer solution (pH 9.0), NPT of various concentrations (0 ng/mL, 0.2 ng/mL, 2 ng/mL and 20 ng/mL) was reacted with antibodies having a constant concentration at room temperature for 20 minutes to obtain NPT/anti-NPT conjugates. The obtained NPT/anti-NPT conjugates were excited at 280 nm to obtain fluorescence spectra (FIG. 14). Referring to FIG. 14, it can be seen that, as the concentration of NPT increases, the fluorescence intensity at a wavelength of 350 nm decreases.
Under the condition of 10 mM NaHCO3 buffer solution (pH 9.0), specificity of mouse IgG antibody (anti-Mouse IgG), IFN-γ antibody (anti-IFN-γ) and CRP antibody (anti-CRP) to 2 ng/mL and 20 ng/mL of NPT was investigated using FRET immunoassay. […] Further, specificity of anti-NPT with BPT having the same concentration as NPT was investigated.

[6] = system: anti-AFB1 antibody; conditions: pH 6

Molecule: C[C@@H]1Cc2c(Cl)cc(C(=O)N[C@@H](Cc3ccccc3)C(=O)O)c(O)c2C(=O)O1 [OTA, ochratoxin A]
- fluorescence intensity at 350 nm as concentration increases [1]: decreases
- binding to anti-AFB1 Fab (specificity) ([2]; OTA at same concentration as AFB1 (10 and 50 ng/mL), MEST buffer pH 6.0): no antigen/antibody binding

Molecule: c1cc2ccc3cccc4ccc(c1)c2c34 [pyrene]
- binding to anti-BaP (specificity) [3]: a little antigen/antibody binding

Molecule: C[C@H]1CCCC(=O)CCC/C=C/c2cc(O)cc(O)c2C(=O)O1 [ZEN, zearalenone]
- fluorescence intensity at 350 nm as concentration increases [4]: decreases

Molecule: biopterin [BPT]
- binding to anti-NPT (specificity) ([5]; BPT at same concentration as NPT (2 and 20 ng/mL)): no antigen/antibody binding

Molecule: Nc1nc2ncc([C@H](O)[C@H](O)CO)nc2c(=O)[nH]1 [NPT, neopterin]
- fluorescence intensity at 350 nm as concentration increases ([5]; 0, 0.2, 2, 20 ng/mL NPT, excitation 280 nm): decreases

Molecule: COc1cc2c(c3oc(=O)c4c(c13)CCC4=O)[C@@H]1C=CO[C@@H]1O2 [AFB1, aflatoxin]
- fluorescence intensity at 350 nm as concentration increases [6]: decreases
- fluorescence intensity at 350 nm as concentration increases ([2]; pH 6): decreases

Molecule: c1ccc2c(c1)ccc1cc3c(ccc4ccccc43)cc12 [DBA, dibenz[a,h]anthracene]
- binding to anti-BaP (specificity) [3]: a little antigen/antibody binding
